Reference: patent US7705030B2, “Amino-5-(5-membered)hetero-arylimidazolone compounds and the use thereof for β-secretase modulation” (Wyeth LLC, priority 2005, dated 2010)

Assays:
[1] = biological target: human BACE1 (Homo sapiens, UniProt P56817); assay: Fluorescent kinetic assay: Evaluation of BACE-1 Binding Affinity of Test Compounds; assay type: biochemical; conditions: 10 nM enzyme, 25 μM substrate WABC-6, 50 mM Na-Acetate pH 4.5, room temperature
Summary of the method: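 Run with 10 nM human BACE1 and 25 μM WABC-6 FRET peptide in 50 mM Na-acetate pH 4.5, 0.05% CHAPS, 25% PBS at room temperature. Fluorescence (ex 320/em 420 nm) was read every 40 sec for 30 min, and initial cleavage rates were taken from linear slopes across ≥10 inhibitor concentrations.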

Chain of human BACE1 (P56817 46-501): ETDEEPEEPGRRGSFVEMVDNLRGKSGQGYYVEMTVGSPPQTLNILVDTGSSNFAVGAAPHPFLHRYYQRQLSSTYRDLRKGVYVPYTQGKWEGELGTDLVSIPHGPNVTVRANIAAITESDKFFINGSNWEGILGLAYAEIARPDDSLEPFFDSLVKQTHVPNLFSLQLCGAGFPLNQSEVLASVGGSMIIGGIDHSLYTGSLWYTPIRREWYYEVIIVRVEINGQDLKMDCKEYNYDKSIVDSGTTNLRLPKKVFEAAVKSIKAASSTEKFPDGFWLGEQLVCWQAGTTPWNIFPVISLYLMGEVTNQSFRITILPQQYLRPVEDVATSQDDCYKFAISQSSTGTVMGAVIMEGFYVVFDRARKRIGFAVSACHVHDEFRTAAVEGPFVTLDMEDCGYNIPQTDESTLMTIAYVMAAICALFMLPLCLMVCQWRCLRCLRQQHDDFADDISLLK

Compound: CCCCCOc1cccc(C2(c3cc(C(=O)CC)n(CC)c3)N=C(N)N(C)C2=O)c1 (centres unmarked) [Example 133]
- melting point: 70 °C
- IC50 [1]: 10 to 100 nM

Compound: CCC(=O)c1cc(C2(c3cccc(OCCC(C)(C)C)c3)N=C(N)N(C)C2=O)cn1CC (centres unmarked) [Example 134]
- melting point: 93 °C
- IC50 [1]: 110 to 1000 nM

Compound: CCCCOc1cccc(C2(c3cc(C(=O)CC)n(CC)c3)N=C(N)N(C)C2=O)c1 (centres unmarked) [Example 136]
- melting point: 76 °C
- IC50 [1]: 110 to 1000 nM

Compound: CCC(=O)c1cc(C2(c3cccc(OCC4CC4)c3)N=C(N)N(C)C2=O)cn1CC (centres unmarked) [Example 137]
- melting point: 86 °C
- IC50 [1]: 10 to 100 nM

Compound: CCC(=O)c1cc(C2(c3cccc(OCC(C)C)c3)N=C(N)N(C)C2=O)cn1CC (centres unmarked) [Example 138]
- melting point: 78 °C
- IC50 [1]: 10 to 100 nM

Compound: C=CCCCOc1cccc(C2(c3cc(C(=O)CC)n(CC)c3)N=C(N)N(C)C2=O)c1 (centres unmarked) [Example 140]
- melting point: 69 °C
- IC50 [1]: 10 to 100 nM

Compound: CCCOc1cccc(C2(c3cccs3)N=C(N)N(C)C2=O)c1 (centres unmarked) [Example 141, 2-Amino-3-methyl-5-(3-propoxyphenyl)-5-thien-2-yl-3,5-dihydro-4H-imidazol-4-one]
- melting point: 79 to 81 °C
- IC50 [1]: 110 to 1000 nM

Compound: CC(C)CCOc1cccc(C2(c3ccsc3)N=C(N)N(C)C2=O)c1 (centres unmarked) [Example 144]
- melting point: 84 to 88 °C
- IC50 [1]: 110 to 1000 nM

Compound: CN1C(=O)C(c2ccsc2)(c2cccc(OCC3CCCCC3)c2)N=C1N (centres unmarked) [Example 147]
- melting point: 88 to 90 °C
- IC50 [1]: > 1000 nM

Compound: CC(C)COc1cccc(C2(c3ccsc3)N=C(N)N(C)C2=O)c1 (centres unmarked) [Example 148]
- melting point: 70 to 73 °C
- IC50 [1]: 110 to 1000 nM

Compound: CCCn1cc(C2(c3cccc(-c4cccnc4F)c3)N=C(N)N(C)C2=O)cc1C(=O)CC (centres unmarked) [Example 149, 2-Amino-5-[3-(2-fluoropyridin-3-yl)phenyl]-3-methyl-5-(5-propionyl-1-propyl-1H-pyrrol-3-yl)-3,5-dihydro-4H-imidazol-4-one]
- melting point: 118 °C
- IC50 [1]: 10 to 100 nM

Compound: CCC(=O)c1cc(C2(c3cccc(-c4cccnc4F)c3)N=C(N)N(C)C2=O)cn1CCCF (centres unmarked) [Example 152]
- melting point: 105 °C
- IC50 [1]: 10 to 100 nM

Compound: CCC(=O)c1cc(C2(c3cccc(-c4cccnc4F)c3)N=C(N)N(C)C2=O)cn1CC (centres unmarked) [Example 155]
- melting point: 126 to 128 °C
- IC50 [1]: 10 to 100 nM

Compound: CCn1cc(C2(c3cccc(-c4cccnc4F)c3)N=C(N)N(C)C2=O)cc1C(=O)NC (centres unmarked) [Example 157]
- melting point: 138 to 140 °C
- IC50 [1]: 10 to 100 nM

Compound: CCNC(=O)c1cc(C2(c3cccc(-c4cccnc4F)c3)N=C(N)N(C)C2=O)cn1CC (centres unmarked) [Example 158]
- melting point: 132 to 135 °C
- IC50 [1]: 10 to 100 nM

Compound: CCCNC(=O)c1cc(C2(c3cccc(-c4cccnc4F)c3)N=C(N)N(C)C2=O)cn1CC (centres unmarked) [Example 159]
- melting point: 120 to 123 °C
- IC50 [1]: 110 to 1000 nM

Compound: CCCCNC(=O)c1cc(C2(c3cccc(-c4cccnc4F)c3)N=C(N)N(C)C2=O)cn1CC (centres unmarked) [Example 160]
- melting point: 118 to 120 °C
- IC50 [1]: 10 to 100 nM

Compound: CCn1cc(C2(c3cccc(-c4cccnc4F)c3)N=C(N)N(C)C2=O)cc1C(=O)NC(C)C (centres unmarked) [Example 161]
- melting point: 121 to 123 °C
- IC50 [1]: 110 to 1000 nM

Compound: CCn1cc(C2(c3cccc(-c4cccnc4F)c3)N=C(N)N(C)C2=O)cc1C(=O)NC1CCCC1 (centres unmarked) [Example 162]
- melting point: 127 to 128 °C
- IC50 [1]: 110 to 1000 nM

Compound: CCn1cc(C2(c3cccc(-c4cccnc4F)c3)N=C(N)N(C)C2=O)cc1C(=O)N1CCCCC1 (centres unmarked) [Example 163]
- melting point: 111 to 113 °C
- IC50 [1]: 10 to 100 nM

Compound: CCn1cc(C2(c3cccc(-c4cccnc4F)c3)N=C(N)N(C)C2=O)cc1C(=O)N1CCOCC1 (centres unmarked) [Example 164]
- melting point: 108 to 109 °C
- IC50 [1]: 10 to 100 nM

Compound: CCn1cc(C2(c3cccc(-c4cccnc4F)c3)N=C(N)N(C)C2=O)cc1C(=O)N(C)C (centres unmarked) [Example 165]
- melting point: > 200 °C
- IC50 [1]: 110 to 1000 nM

Compound: CCn1cc(C2(c3cccc(-c4cccnc4F)c3)N=C(N)N(C)C2=O)cc1C(=O)NCc1ccc(F)cc1 (centres unmarked) [Example 166]
- melting point: 110 to 112 °C
- IC50 [1]: 110 to 1000 nM

Compound: CCC(=O)c1cc(C2(c3cccc(-c4cccnc4F)c3)N=C(N)N(C)C2=O)cn1CCF (centres unmarked) [Example 167]
- melting point: 100 °C
- IC50 [1]: 10 to 100 nM

Compound: CCCCCC(=O)c1cc(C2(c3cccc(-c4cccnc4F)c3)N=C(N)N(C)C2=O)cn1CC (centres unmarked) [Example 169]
- melting point: 71 to 73 °C
- IC50 [1]: 10 to 100 nM

Compound: CCn1cc(C2(c3cccc(-c4cccnc4F)c3)N=C(N)N(C)C2=O)cc1C(=O)c1ccccc1 (centres unmarked) [Example 170]
- melting point: 104 to 106 °C
- IC50 [1]: 10 to 100 nM

Compound: CCn1cc(C2(c3cccc(-c4cccnc4F)c3)N=C(N)N(C)C2=O)cc1C(=O)C1CCCCC1 (centres unmarked) [Example 171]
- melting point: 94 to 100 °C
- IC50 [1]: 10 to 100 nM

Compound: CCn1cc(C2(c3cccc(-c4cccnc4F)c3)N=C(N)N(C)C2=O)cc1C(=O)C1CC1 (centres unmarked) [Example 172]
- melting point: 98 to 100 °C
- IC50 [1]: 10 to 100 nM

Compound: CCn1cc(C2(c3cccc(-c4cccnc4F)c3)N=C(N)N(C)C2=O)cc1C(=O)C(C)C (centres unmarked) [Example 173]
- melting point: 85 to 88 °C
- IC50 [1]: 10 to 100 nM

Compound: CCC(C)C(=O)c1cc(C2(c3cccc(-c4cccnc4F)c3)N=C(N)N(C)C2=O)cn1CC (centres unmarked) [Example 174]
- melting point: 210 to 211 °C
- IC50 [1]: 10 to 100 nM

Compound: CCC(=O)c1cc(C2(c3cccc(-c4cccnc4F)c3)N=C(N)N(C)C2=O)cn1CCCC(F)(F)F (centres unmarked) [Example 176]
- melting point: 91 to 94 °C
- IC50 [1]: 10 to 100 nM

Compound: CCC(=O)c1cc(C2(c3cccc(-c4cccnc4F)c3)N=C(N)N(C)C2=O)cn1CCCCF (centres unmarked) [Example 178]
- melting point: 105 °C
- IC50 [1]: 10 to 100 nM

Compound: CCC(=O)c1cc(C2(c3cccc(-c4cccnc4F)c3)N=C(N)N(C)C2=O)cn1CC(C)C (centres unmarked) [Example 179]
- melting point: 98 to 102 °C
- IC50 [1]: 10 to 100 nM

Compound: CCC(=O)c1cc(C2(c3cccc(-c4cccnc4F)c3)N=C(N)N(C)C2=O)cn1C (centres unmarked) [Example 180]
- melting point: 107 to 111 °C
- IC50 [1]: 10 to 100 nM

Compound: CCC(=O)c1cc(C2(c3cccc(-c4cccnc4F)c3)N=C(N)N(C)C2=O)cn1Cc1ccccc1 (centres unmarked) [Example 181]
- melting point: 93 to 96 °C
- IC50 [1]: 10 to 100 nM

Compound: CCC(=O)c1cc(C2(c3cccc(-c4cccnc4F)c3)N=C(N)N(C)C2=O)cn1Cc1cscn1 (centres unmarked) [Example 182]
- melting point: 116 to 120 °C
- IC50 [1]: 10 to 100 nM

Compound: CCC(=O)c1cc([C@]2(c3ccc(F)c(-c4cccnc4F)c3)N=C(N)N(C)C2=O)cn1CC [Example 183A, (5S)-2-Amino-5-(1-ethyl-5-propionyl-1H-pyrrol-3-yl)-5-[4-fluoro-3-(2-fluoropyridin-3-yl)phenyl]-3-methyl-3,5-dihydro-4H-imidazol-4-one]
- melting point: 114 to 116 °C
- IC50 [1]: 10 to 100 nM

Compound: COC(=O)c1cc([C@]2(c3ccc(F)c(-c4cccnc4F)c3)N=C(N)N(C)C2=O)cn1CCF [Example 184A, Methyl 4-{(4S)-2-amino-4-[4-fluoro-3-(2-fluoropyridin-3-yl)phenyl]-1-methyl-5-oxo-4,5-dihydro-1H-imidazol-4-yl}-1-(2-fluoroethyl)-1H-pyrrole-2-carboxylate]
- melting point: 111 to 113 °C
- IC50 [1]: 10 to 100 nM

Compound: CCC(=O)c1cc([C@]2(c3cccc(-c4cccnc4F)c3)N=C(N)N(C)C2=O)cn1CC [Example 185, (5S)-2-Amino-5-(1-ethyl-5-propionyl-1H-pyrrol-3-yl)-5-[3-(2-fluoropyridin-3-yl)phenyl]-3-methyl-3,5-dihydro-4H-imidazol-4-one]
- melting point: 94 to 97 °C
- IC50 [1]: 10 to 100 nM

Compound: CCn1cc([C@]2(c3ccc(F)c(-c4cccnc4F)c3)N=C(N)N(C)C2=O)cc1C(=O)OC [Example 186, Methyl 4-{(4S)-2-amino-4-[4-fluoro-3-(2-fluoropyridin-3-yl)phenyl]-1-methyl-5-oxo-4,5-dihydro-1H-imidazol-4-yl-}-ethyl-1H-pyrrole-2-carboxylate]
- melting point: 114 to 117 °C
- IC50 [1]: 10 to 100 nM

Compound: CCn1cc([C@]2(c3cccc(-c4cccnc4F)c3)N=C(N)N(C)C2=O)cc1C(C)=O [Example 187, (5S)-5-(5-Acetyl-1-ethyl-1H-pyrrol-3-yl)-2-amino-5-[3-(2-fluoropyridin-3-yl)phenyl]-3-methyl-3,5-dihydro-4H-imidazol-4-one]
- melting point: 109 to 111 °C
- IC50 [1]: 10 to 100 nM

Compound: CCn1cc(C2(c3ccc(F)c(-c4cccnc4F)c3)N=C(N)N(C)C2=O)cc1S(C)(=O)=O (centres unmarked) [Example 188, 2-Amino-5-[1-ethyl-5-(methylsulfonyl)-1H-pyrrol-3-yl]-5-[4-fluoro-3-(2-fluoropyridin-3-yl)phenyl]-3-methyl-3,5-dihydro-4H-imidazol-4-one]
- melting point: 193 to 195 °C
- IC50 [1]: 10 to 100 nM

Compound: COC(=O)c1cc(C2(c3cccc(-c4ccc(F)nc4)c3)N=C(N)N(C)C2=O)cn1CCF (centres unmarked) [Example 191]
- melting point: 206 to 210 °C
- IC50 [1]: 10 to 100 nM

Compound: COC(=O)c1cc(C2(c3cccc(-c4cc(F)ccc4F)c3)N=C(N)N(C)C2=O)cn1CCF (centres unmarked) [Example 192]
- melting point: 166 to 170 °C
- IC50 [1]: 10 to 100 nM

Compound: COC(=O)c1cc(C2(c3cccc(-c4cc(F)cc(F)c4)c3)N=C(N)N(C)C2=O)cn1CCF (centres unmarked) [Example 193]
- melting point: 173 to 176 °C
- IC50 [1]: 10 to 100 nM

Compound: COC(=O)c1cc(C2(c3cccc(-c4cccc(C#N)c4)c3)N=C(N)N(C)C2=O)cn1CCF (centres unmarked) [Example 194]
- melting point: 98 to 101 °C
- IC50 [1]: 10 to 100 nM

Compound: COC(=O)c1cc(C2(c3cccc(-c4cc(C#N)ccc4F)c3)N=C(N)N(C)C2=O)cn1CCF (centres unmarked) [Example 195]
- melting point: 147 to 150 °C
- IC50 [1]: 10 to 100 nM

Compound: COC(=O)c1cc(C2(c3cccc(-c4cccc(OC)c4)c3)N=C(N)N(C)C2=O)cn1CCF (centres unmarked) [Example 196]
- melting point: 121 to 124 °C
- IC50 [1]: 10 to 100 nM

Compound: COC(=O)c1cc(C2(c3cccc(-c4ccc(F)c(F)c4)c3)N=C(N)N(C)C2=O)cn1CCF (centres unmarked) [Example 198]
- melting point: 125 to 128 °C
- IC50 [1]: 10 to 100 nM
